What was measured:
[1] = system: 3D cell spheroids of human pancreatic (PSN‐1) cancer cells; test: Acid phosphatase (APH) assay, 3D spheroid culture; format: cell-based; details: PSN‐1 spheroids, 72 h, APH test
Excerpt: (§1) The remarkable cell‐killing effect observed in 2D cultured cells prompted us to evaluate the in vitro antitumor activity of the complexes on 3D cell cultures. Differently from 2D monolayer culture, 3D spheroid cell culture systems comprise cancer cells in various cell growth stages. Consequently, the multicellular cancer spheroid model is recognized to better reflect the tumour mass in vivo regarding drug permeation, cell interactions, gene expression, hypoxia and nutrient gradients with respect to monolayer cell cultures, making 3D models more predictive than conventional 2D monolayer cultures in screening antitumor drugs.[38] Table 6 summarizes the IC50 values obtained after treatment of 3D cell spheroids of human ovarian (2008) and pancreatic (PSN‐1) cancer cells with the diiron complexes and cisplatin.
(§2) Spheroid cultures. Spheroid cultures were obtained by seeding 2.5×10^3 cells/well in round bottom non‐tissue culture treated 96 well‐plate (Greiner Bio‐one, Kremsmünster, Austria) in phenol red free RPMI‐1640 medium (Sigma Chemical Co.), containing 10 % FCS and supplemented with 20 % methyl cellulose stock solution.
(§3) Acid phosphatase (APH) assay. An APH modified assay was used for determining cell viability in 3D spheroids, as previously described.[58] IC50 values were calculated with a four‐parameter logistic (4‐PL) model. All the values are the means ± SD of not less than four independent experiments.

[2] = system: 3D cell spheroids of human ovarian (2008) cancer cells; test: Acid phosphatase (APH) assay, 3D spheroid culture; format: cell-based; details: 2008 spheroids, 72 h, APH test
Excerpt: as §1, §2, §3

[3] = Octanol/water partition coefficient, shake-flask method and UV/Vis; details: octanol/water, 21 °C
Description: Octanol/water partition coefficients (log Pow ). Partition coefficients (P ow; IUPAC: K D partition constant[53]), defined as P ow=corg/caq, where corg and caq are molar concentrations of the selected compound in the organic and aqueous phase, respectively, were determined by the shake‐flask method and UV/Vis measurements.[[16a], [54]] Deionized water and octan‐1‐ol were vigorously stirred for 24 h, to enable saturation of both phases, then separated by centrifugation. A stock solution of the selected Fe compound (ca. 2 mg) was prepared by first adding acetone (50 μL, to help solubilization), followed by water‐saturated octanol (2.5 mL). The solution was diluted with water‐saturated octanol (ca. 1 : 3 v/v ratio, cFe2 ≈10^−4 M, so that 1.5≤A≤2.0 at λ max) and its UV/Vis spectrum was recorded ( A0/org ). An aliquot of the solution (V org=1.2 mL) was transferred into a test tube and octanol‐saturated water (V org=V aq=1.2 mL) was added. The mixture was vigorously stirred for 30 min at 21 °C then centrifuged (RCF 805, 5 min; Hettich EBA 8G). The UV/Vis spectrum of the organic phase was recorded ( Af/org ) and the partition coefficient was calculated as P ow= Af/org /( A0/org g− Af/org ) where A0/org and Af/org are the absorbance in the organic phase before and after partition with the aqueous phase, respectively.[53] For [2B]BF4, [2C]Cl and [3F]CF3SO3 an inverse procedure was followed, starting from a solution of the compound in octanol‐saturated water. The partition coefficient was calculated as P ow=( A0/aq − Af/aq )/ Af/aq where A0/aq and Af/aq are the absorbance in the aqueous phase before and after partition with the organic phase, respectively.

[4] = Stability in D2O, D2O/CD3OD and DMSO-d6/D2O at 37 °C by 1H NMR; format: physicochemical
Description: A detailed study on the behaviour of a selection of the diiron complexes in aqueous media was undertaken. Experimental procedures are provided in the Experimental Section and in the Supporting Information, with data collected in Tables 3, S3 and S4. […] The octanol/water partition coefficients (log P ow) were measured by a UV/Vis method and fall in between 0 and −1, reflecting an amphiphilic or slightly hydrophilic character. […] Conversely, those complexes with aromatic groups (i. e., 1H‐indol‐6‐yl, 2‐naphthyl and bis‐benzyl in [2A]^+, [3G]^+, [4G]^+ and [5H]^+) are less soluble in water and display increased affinity for n‐octanol (log P ow≈0). The diiron compounds are inert in aqueous solution at room temperature, and undergo a slow degradation at 37 °C. Under such conditions, a variable amount (50 to 86 %; Table S3) of the starting material was detected by ^1H NMR in D2O or D2O/CD3OD mixtures after 72 h.[33] During this time, the precipitation of a brown solid was observed, which in one case (from a [2C]CF3SO3 solution) was separated and identified as γ‐Fe2O3 by Raman analysis. In addition, headspace GC analyses performed on 5 % MeOH aqueous solutions of the compounds maintained at 37 °C allowed the identification and quantitation of the carbon monoxide released over a 48 h period (Table S4). These facts indicate that the thermal degradation process in aqueous solution leads to the progressive disassembly of the organometallic scaffold.[16] The presumed, controlled release of the iron centres (converted to iron oxide, see above) and carbon monoxide are two aspects that deserve attention with reference to the biological activity: note that the decay of ferrocene drug candidates into Fe^II ions was previously associated to their cytotoxicity,[34] while the activity of various iron carbonyl complexes was correlated to CO dissociation in the physiological media.[35]
Stability in water (D2O) and cell culture medium. The procedures are described in the Supporting Information, and data are collected in Table S3.
Table S3. Stability of diiron complexes in D2O, D2O/CD3OD, DMSO-d6/D2O and cell culture medium (DMEM-
d/CD3OD) solution at 37 °C calculated by 1H NMR (Me2SO2 internal standard).
% starting material (72 h) % starting material
Compound D O D O/CD OD DMSO-d /D O DMEM-d
[a] X = I for the stability in D 2O, X = CF3SO3 for the stability in cell culture medium. [b] Stability in D 2O and […]

[5] = Solubility pattern of the isolated compound (qualitative); format: physicochemical; details: isolated solid

Substance: [Fe2Cp2(CO)2(μ‐CO){μ‐CNBn2}]X [[5H]CF3SO3]
- IC50 [1]: 86.2 ± 6.4 µM
- IC50 [2]: 73.2 ± 6.2 µM
- Log P ow [3]: 0.2±0.02
- Log P ow ([3]; listed as [5H]^+): ≈ 0
- % starting material (72 h) ([4]; D2O): ca. 50%
- % starting material (72 h) ([4]; D2O/CD3OD 5:4 v/v): 65%
- % starting material (72 h) ([4]; DMSO-d6/D2O 1:1 v/v): 89%
- Solubility in water (qualitative) [5]: poorly soluble

Substance: [Fe2Cp2(CO)2(μ‐CO){μ‐CNEt(2‐naphthyl)}]BF4 [[4G]BF4]
- IC50 [1]: 77.4 ± 8.4 µM
- IC50 [2]: 58.9 ± 4.8 µM
- Log P ow [3]: 0.1±0.1
- Log P ow ([3]; listed as [4G]^+): ≈ 0
- % starting material (72 h) ([4]; D2O/CD3OD 5:4 v/v): 51%
- % starting material (72 h) ([4]; DMSO-d6/D2O 5:3 v/v): 42%
- Solubility in water (qualitative) [5]: insoluble

Substance: [Fe2Cp2(CO)2(μ‐CO){μ‐CNMe(1H‐indol‐6‐yl)}]CF3SO3 [[2A]CF3SO3]
- IC50 [1]: > 100 µM
- IC50 [2]: > 100 µM
- Log P ow [3]: 0.0±0.1
- Log P ow ([3]; listed as [2A]^+): ≈ 0
- % starting material (72 h) ([4]; D2O/CD3OD 2:1 v/v): 55%
- % starting material (72 h) ([4]; DMSO-d6/D2O 1:1 v/v): 89%
- Solubility in water (qualitative) [5]: insoluble

Substance: [Fe2Cp2(CO)2(μ‐CO){μ‐CNMe(4‐C6H4OMe)}]CF3SO3 [[2D]CF3SO3]
- IC50 [1]: 53.7 ± 6.1 µM
- IC50 [2]: 42.8 ± 4.2 µM
- Log P ow [3]: −0.25±0.04
- % starting material (72 h) ([4]; D2O): 86%
- Solubility in water (qualitative) [5]: soluble

Substance: [Fe2Cp2(CO)2(μ‐CO){μ‐CNMe(C6H11)}]X [[2C]CF3SO3]
- IC50 [1]: 78.2 ± 9.1 µM
- IC50 [2]: 66.4 ± 8.6 µM
- Log P ow [3]: −0.46±0.02
- % starting material (72 h) ([4]; D2O): 75%
- Solubility in water (qualitative) [5]: less soluble

Substance: [Fe2Cp2(CO)2(μ‐CO){μ‐CNMe(CH2CHCH2)}]X [[3F]CF3SO3]
- IC50 [1]: > 100 µM
- IC50±SD (μM) [1]: ineffective
- IC50 [2]: > 100 µM
- IC50±SD (μM) [2]: ineffective
- Log P ow [3]: −1.01±0.02
- Solubility in water (qualitative) [5]: soluble

Substance: [Fe2Cp2(CO)2(μ‐CO){μ‐CNMe(CH2PO3Et2)}]X [[2B]BF4]
- IC50 [1]: > 100 µM
- IC50 [2]: > 100 µM
- % starting material (72 h) ([4]; D2O): 85%
- % starting material (72 h) ([4]; D2O/CD3OD 2:1 v/v): 81%
- Solubility in water (qualitative) [5]: soluble

Reference: paper PMC8362065, “Easily Available, Amphiphilic Diiron Cyclopentadienyl Complexes Exhibit in Vitro Anticancer Activity in 2D and 3D Human Cancer Cells through Redox Modulation Triggered by CO Release” (Chemistry (Weinheim an Der Bergstrasse, Germany), 2021)
